Structures are written as SMILES. Structures can show the parent of a compound that is named as a salt.

T1 sequence (Q9Y5N1 whole entry): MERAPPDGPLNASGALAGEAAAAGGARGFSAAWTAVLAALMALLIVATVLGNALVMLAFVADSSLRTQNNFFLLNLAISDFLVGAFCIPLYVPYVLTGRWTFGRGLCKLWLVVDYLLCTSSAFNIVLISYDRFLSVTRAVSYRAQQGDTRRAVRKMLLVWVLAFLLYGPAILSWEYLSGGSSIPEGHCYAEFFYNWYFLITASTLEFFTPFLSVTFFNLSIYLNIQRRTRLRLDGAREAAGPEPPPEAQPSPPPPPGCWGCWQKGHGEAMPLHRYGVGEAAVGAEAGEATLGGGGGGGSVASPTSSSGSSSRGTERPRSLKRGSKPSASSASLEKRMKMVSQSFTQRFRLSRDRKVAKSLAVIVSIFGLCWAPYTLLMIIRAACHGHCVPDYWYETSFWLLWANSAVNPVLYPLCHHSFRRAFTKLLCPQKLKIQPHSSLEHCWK

The assay concerns the target T1, histamine H3 receptor (Homo sapiens, UniProt Q9Y5N1).
T1 construct: expressed in transfected cells; host or cells: CHO K1 cells carrying pSwitch, transfected with pGeneH3 and induced with mifepristone; clone 3H3; membranes
Description: Histamine H3 functional antagonist assay ([35S]GTPγS, SPA, membranes of CHO K1 cells expressing the receptor). The assay is classed as biochemical. The settings on record: histamine-stimulated GTPγS binding, membranes with human H3. The source says: A membrane preparation containing histamine H3 receptors may be prepared in accordance with the following procedures:
(i) Generation of Histamine H3 Cell Line
DNA encoding the human histamine H3 gene (Huvar, A. et al. (1999) Mol. Pharmacol. 55(6), 1101-1107) was cloned into a holding vector, pCDNA3.1 TOPO (InVitrogen) and its cDNA was isolated from this vector by restriction digestion of plasmid DNA with the enzymes BamH1 and Not-1 and ligated into the inducible expression vector pGene (InVitrogen) digested with the same enzymes. The GeneSwitch™ system (a system where in transgene expression is switched off in the absence of an inducer and switched on in the presence of an inducer) was performed as described in U.S. Pat. Nos. 5,364,791; 5,874,534; and 5,935,934. Ligated DNA was transformed into competent DH5α E. coli host bacterial cells and plated onto Luria Broth (LB) agar containing Zeocin™ (an antibiotic which allows the selection of cells expressing the sh ble gene which is present on pGene and pSwitch) at 50 μg ml^−1. Colonies containing the re-ligated plasmid were identified by restriction analysis. DNA for transfection into mammalian cells was prepared from 250 ml cultures of the host bacterium containing the pGeneH3 plasmid and isolated using a DNA preparation kit (Qiagen Midi-Prep) as per manufacturers guidelines (Qiagen).
CHO K1 cells previously transfected with the pSwitch regulatory plasmid (InVitrogen) were seeded at 2×10e6cells per T75 flask in Complete Medium, containing Hams F12 (GIBCOBRL, Life Technologies) medium supplemented with 10% v/v dialysed foetal bovine serum, L-glutamine, and hygromycin ([…]), 24 hours prior to use. Plasmid DNA was transfected into the cells using Lipofectamine plus according to the manufacturers guidelines (InVitrogen). 48 hours post transfection cells were placed into complete medium supplemented with […] Zeocin™.
10-14 days post selection 10 nM Mifepristone (InVitrogen), was added to the culture medium to induce the expression of the receptor. 18 hours post induction cells were detached from the flask using ethylenediamine tetra-acetic acid (EDTA; 1:5000; InVitrogen), following several washes with phosphate buffered saline pH 7.4and resuspended in Sorting Medium containing Minimum Essential Medium (MEM), without phenol red, and supplemented with Earles salts and 3% Foetal Clone II (Hyclone). Approximately 1×10e7 cells were examined for receptor expression by staining with a rabbit polyclonal antibody, 4a, raised against the N-terminal domain of the histamine H3 receptor, incubated on ice for 60 minutes, followed by two washes in sorting medium. Receptor bound antibody was detected by incubation of the cells for 60 minutes on ice with a goat anti rabbit antibody, conjugated with Alexa 488 fluorescence marker (Molecular Probes). Following two further washes with Sorting Medium, cells were filtered through a 50 μm Filcon™ (BD Biosciences) and then analysed on a FACS Vantage SE Flow Cytometer fitted with an Automatic Cell Deposition Unit. Control cells were non-induced cells treated in a similar manner. Positively stained cells were sorted as single cells into 96-well plates, containing Complete Medium containing 500 μg ml^−1 Zeocin™ and allowed to expand before reanalysis for receptor expression via antibody and ligand binding studies. One clone, 3H3, was selected for membrane preparation.
(ii) Membrane Preparation from Cultured Cells
All steps of the protocol are carried out at 4° C. and with pre-cooled reagents. The cell pellet is resuspended in 10 volumes of buffer A2 containing 50 mM N-2-hydroxyethylpiperazine-N′-2-ethanesulfonic acid (HEPES) (pH 7.40) supplemented with […] leupeptin (acetyl-leucyl-leucyl-arginal; Sigma L2884), 25 μg/ml bacitracin (Sigma B0125), 1 mM ethylenediamine tetra-acetic acid (EDTA), 1 mM phenylmethylsulfonyl fluoride (PMSF) and 2×10e-6M pepstain A (Sigma). […]
Take `Cc1cc(-c2ccc(N3CCC(OC4CCN(C5CCC5)CC4)CC3)cc2)on1` [Example E24]: the Ki was no more than 1 nM.
Next, `Cc1nc(-c2ccc(N3CCC(OC4CCN(C5CCC5)CC4)CC3)cc2)no1` [Example E25]: no more than 1 nM; `CC(C)N1CCC(OC2CCN(c3ccc(-c4nnc(-c5ccccc5)o4)cc3)CC2)CC1` [Example E26]: no more than 1 nM; `c1ccc(-c2nnc(-c3ccc(N4CCC(OC5CCN(C6CCC6)CC5)CC4)cc3)o2)cc1` [Example E27]: no more than 1 nM.
Next, `Cc1noc(-c2ccc(N3CCC(OC4CCN(C5CCC5)CC4)CC3)cc2)n1` [Example E28]: no more than 1 nM; `c1ncc(-c2ccc(N3CCC(OC4CCN(C5CCC5)CC4)CC3)cc2)o1` [Example E29]: no more than 1 nM.
Compound `CC(C)N1CCC(OC2CCN(c3ccc(-c4cnco4)cc3)CC2)CC1` [Example E30] had an inhibitory constant (Ki) of no more than 1 nM.
`CN(C)C(=O)c1ccc(N2CCC(OC3CCN(C4CCC4)CC3)CC2)cn1` [Example E31, 5-{4-[(1-Cyclobutyl-4-piperidinyl)oxy]-1-piperidinyl}-N,N-dimethyl-2-pyridinecarboxamide hydrochloride] gave a Ki of no more than 1 nM.
To `CC(C)N1CCC(OC2CCN(c3ccc(C(=O)N(C)C)nc3)CC2)CC1` [Example E32] belongs no more than 1 nM; to `CC(C)N1CCC(OC2CCN(c3ccc(C(=O)N4CCCC4)nc3)CC2)CC1` [Example E33], no more than 1 nM.
To `CC(C)N1CCC(OC2CCN(c3ccc(C(=O)N4CCCCC4)nc3)CC2)CC1` [Example E34] belongs no more than 1 nM; to `O=C(c1ccc(N2CCC(OC3CCN(C4CCC4)CC3)CC2)cn1)N1CCCCC1` [Example E35], no more than 1 nM; to `CC(C)N1CCC(OC2CCN(c3ccc(C(=O)N4CCOCC4)nc3)CC2)CC1` [Example E36], no more than 1 nM.
Next, `O=C(c1ccc(N2CCC(OC3CCN(C4CCC4)CC3)CC2)cn1)N1CCOCC1` [Example E37]: no more than 1 nM; `CNC(=O)c1ccc(N2CCC(OC3CCN(C4CCC4)CC3)CC2)cn1` [Example E38, 5-{4-[(1-Cyclobutyl-4-piperidinyl)oxy]-1-piperidinyl}-N-methyl-2-pyridinecarboxamide hydrochloride]: less than 0.316 nM; `CCNC(=O)c1ccc(N2CCC(OC3CCN(C(C)C)CC3)CC2)cn1` [Example E39]: no more than 1 nM.
Compound `CCCNC(=O)c1ccc(N2CCC(OC3CCN(C(C)C)CC3)CC2)cn1` [Example E41] had a Ki of no more than 1 nM.
Next, `CC(C)N1CCC(OC2CCN(c3ccc(C(=O)NC4CCCC4)nc3)CC2)CC1` [Example E45]: no more than 1 nM; `O=C(NC1CCCC1)c1ccc(N2CCC(OC3CCN(C4CCC4)CC3)CC2)cn1` [Example E46]: no more than 1 nM.
Next, `N#Cc1ccc(N2CCC(OC3CCN(C4CCC4)CC3)CC2)cn1` [Example E47, 5-{4-[(1-Cyclobutyl-4-piperidinyl)oxy]-1-piperidinyl}-2-pyridinecarbonitrile hydrochloride]: no more than 1 nM; `CC(=O)c1ccc(N2CCC(OC3CCN(C4CCC4)CC3)CC2)cc1` [Example E48, 1-(4-{4-[(1-Cyclobutyl-4-piperidinyl)oxy]-1-piperidinyl}phenyl)ethanone hydrochloride]: less than 0.316 nM.
To `FC(F)(F)c1ccc(N2CCC(OC3CCN(C4CCC4)CC3)CC2)cn1` [Example E49, 5-{4-[(1-Cyclobutyl-4-piperidinyl)oxy]-1-piperidinyl}-2-(trifluoromethyl)pyridine hydrochloride] belongs no more than 1 nM; to `CNC(=O)c1ccc(N2CCC(OC3CCN(C(C)C)CC3)CC2)nc1` [Example E50], less than 10 nM.
In turn, `CC(C)N1CCC(OC2CCN(c3ccc(C(=O)N(C)C)cn3)CC2)CC1` [Example E51] had a Ki of less than 10 nM.
To `CC(C)N1CCC(OC2CCN(c3ccc(C(=O)N4CCCC4)cn3)CC2)CC1` [Example E52] belongs less than 10 nM.
To `CC(C)N1CCC(OC2CCN(c3ccc(C(=O)N4CCOCC4)cn3)CC2)CC1` [Example E53] belongs less than 10 nM.
Next, `CNC(=O)c1ccc(N2CCC(OC3CCN(C4CCC4)CC3)CC2)nc1` [Example E54]: no more than 1 nM; `CN(C)C(=O)c1ccc(N2CCC(OC3CCN(C4CCC4)CC3)CC2)nc1` [Example E55]: no more than 1 nM; `O=C(c1ccc(N2CCC(OC3CCN(C4CCC4)CC3)CC2)nc1)N1CCCC1` [Example E56]: no more than 1 nM.
For the compound `O=C(c1ccc(N2CCC(OC3CCN(C4CCC4)CC3)CC2)nc1)N1CCOCC1` [Example E57], the Ki is no more than 1 nM.
To `CNC(=O)c1cccc(N2CCC(OC3CCN(C(C)C)CC3)CC2)n1` [Example E58] belongs less than 10 nM; to `CC(C)N1CCC(OC2CCN(c3cccc(C(=O)N4CCCC4)n3)CC2)CC1` [Example E60], less than 10 nM.
To `CC(C)N1CCC(OC2CCN(c3cccc(C(=O)N4CCOCC4)n3)CC2)CC1` [Example E61] belongs less than 10 nM; to `CNC(=O)c1cccc(N2CCC(OC3CCN(C4CCC4)CC3)CC2)n1` [Example E62], no more than 1 nM.
For `CN(C)C(=O)c1cccc(N2CCC(OC3CCN(C4CCC4)CC3)CC2)n1` [Example E63], the inhibition constant Ki was less than 10 nM.
Next, `O=C(c1cccc(N2CCC(OC3CCN(C4CCC4)CC3)CC2)n1)N1CCCC1` [Example E64]: less than 10 nM.
To `O=C(c1cccc(N2CCC(OC3CCN(C4CCC4)CC3)CC2)n1)N1CCOCC1` [Example E65] belongs less than 10 nM; to `CC(C)NC(=O)c1cc(N2CCC(OC3CCN(C4CCC4)CC3)CC2)ccn1` [Example E67], less than 10 nM; to `O=C(c1cc(N2CCC(OC3CCN(C4CCC4)CC3)CC2)ccn1)N1CCCCC1` [Example E69], less than 10 nM.
The compound `CNC(=O)c1cnc(N2CCC(OC3CCN(C4CCC4)CC3)CC2)cn1` [Example E70, 5-(4-[(1-Cyclobutyl-4-piperidinyl)oxy]-1-piperidinyl}-N-methyl-2-pyrazinecarboxamide butanedioate] gave a Ki of no more than 1 nM.
To `CCNC(=O)c1cnc(N2CCC(OC3CCN(C4CCC4)CC3)CC2)cn1` [Example E71] belongs no more than 1 nM; to `CCCNC(=O)c1cnc(N2CCC(OC3CCN(C4CCC4)CC3)CC2)cn1` [Example E72], no more than 1 nM.
Next, `CC(C)NC(=O)c1cnc(N2CCC(OC3CCN(C4CCC4)CC3)CC2)cn1` [Example E73]: no more than 1 nM; `O=C(NC1CCC1)c1cnc(N2CCC(OC3CCN(C4CCC4)CC3)CC2)cn1` [Example E74]: no more than 1 nM.
To `CNC(=O)c1cnc(N2CCC(OC3CCN(C(C)C)CC3)CC2)cn1` [Example E75] belongs no more than 1 nM.
As for `CCNC(=O)c1cnc(N2CCC(OC3CCN(C(C)C)CC3)CC2)cn1` [Example E76], the Ki is no more than 1 nM.
To `CCCNC(=O)c1cnc(N2CCC(OC3CCN(C(C)C)CC3)CC2)cn1` [Example E77] belongs no more than 1 nM; to `CC(C)NC(=O)c1cnc(N2CCC(OC3CCN(C(C)C)CC3)CC2)cn1` [Example E78], no more than 1 nM; to `CC(C)N1CCC(OC2CCN(c3cnc(C(=O)NC4CCC4)cn3)CC2)CC1` [Example E79], no more than 1 nM.
To `CC(C)N1CCC(OC2CCN(c3ccc(C#N)nc3)CC2)CC1` [Example E80, 5-(4-{[1-(1-Methylethyl)-4-piperidinyl]oxy)-1-piperidinyl)-2-pyridinecarbonitrile hydrochloride] belongs no more than 1 nM; to `CC(C)N1CCC(OC2CCN(c3ccc(C(F)(F)F)nc3)CC2)CC1` [Example E81, 5-{4-[(1-Methylethyl-4-piperidinyl)oxy]-1-piperidinyl}-2-(trifluoromethyl)pyridine hydrochloride], no more than 1 nM.

Values taken from US20060247227A1, “Substituted piperidines as histamine h3 receptor ligands” (priority 2003, published 2006).
